Experimental data taken from patent US20260001841A1, “PREPARATION OF STABLE PSILOCIN SALTS, ESTERS AND CONJUGATES AND USES THEREOF” (LOBE SCIENCES LTD., priority 2022, published 2026).
Values joined by “and” are separate entries in the source; they are usually repeats but may differ in a detail not shown here. Equal values may be shown once. “Also recorded” adds a separate entry of the source.

Assays:
[1] = psilocin from psilocybin dosing; cited from earlier work
[2] = doses as low as 5 mg psilocybin (about 2 mg psilocin); cited from earlier work
[3] = Stability studies on psilocin mucate capsule (appearance, HPLC assay and impurities, TM-022-0392); format: physicochemical; details: for Appearance, Packaging: Labeled, amber glass bottle with white closure containing 15 partially filled white opaque capsules / Appearance, Product: White to light brown powder partially filling white opaque capsules / Total Impurities TM-22-0392 / Impurities TM-22-0392, individual impurities / Assay TM-22-0392 (% Label Claim): capsule; for Assay TM-22-0392 (% Label Claim): specification 90.0-110.0%
Method: Additional stability studies were performed on psilocin mucate (also known as psilocin mucic acid salt or conjugate or psilocin galactaric acid salt or conjugate) capsule.
Appearance was evaluated by viewing of the sample on a watchglass over a black and white background.
Assay conditions for Test/Method TM-022-0392 assessing stability and impurities were as follows: • Mobile phase: MPA: 945 mL water, 5 mL H3PO4, PH to 5.7 with NaOH; MPB: Acetonitrile • Diluent: 80:20 Water:MeOH • Standard: 0.4 mg/mL Psilocin Mucic RS in Diluent • Sample: 0.4 mg/mL Psilocin Mucic API in Diluent HPLC Conditions are depicted in Table 3.
Calculations were against a bracketing external standard.
Identity of psilocin mucate was verified by ultraviolet (UV) assessment, wherein the UV spectrum of the main peak in the standard matched the UV spectrum of the main peak in the sample and by retention time wherein the retention time ratio was 0.98-1.02.

healthy subjects = assay: Phase one single-dose study of psilocin mucic acid conjugate capsules: psychiatrist mood assessment and mini mental state examination (MMSE); details: single oral capsule, 4.05 mg conjugate equivalent to 2 mg psilocin

| Compound | Estimated dose-normalized bioavailability [1] [%] | Adverse psychological effects reported [2] | Time demonstrated to be stable [3] | Appearance, Packaging: Labeled, amber glass bottle with white closure containing 15 partially filled white opaque capsules ([3]; 7 Months) | Appearance, Product: White to light brown powder partially filling white opaque capsules ([3]; 7 Months) | Total Impurities TM-22-0392 ([3]; 7 Months) [%] | Impurities TM-22-0392, individual impurities ([3]; 7 Months, all impurities) | Assay TM-22-0392 (% Label Claim) ([3]; 7 Months) [%] | Appearance, Packaging: Labeled, amber glass bottle with white closure containing 15 partially filled white opaque capsules ([3]; Initial) | Appearance, Product: White to light brown powder partially filling white opaque capsules ([3]; Initial) | Total Impurities TM-22-0392 ([3]; Initial) [%] | Impurities TM-22-0392, individual impurities ([3]; Initial, impurity at RRT1.12) | Assay TM-22-0392 (% Label Claim) ([3]; Initial) [%] | FEELING STATUS (mood assessed by psychiatrist) (healthy subjects; one entry per subject (01-10)) | MMSE score (healthy subjects; one value per subject (01-10), scores expected below 25 with a hallucinogenic substance) |
| --- | --- | --- | --- | --- | --- | --- | --- | --- | --- | --- | --- | --- | --- | --- | --- |
| CN(C)CCc1c[nH]c2cccc(OP(=O)(O)O)c12 [psilocybin, Psilocybin] | 52.7 | hallucinogenic effects coupled with increased anxiety | – | – | – | – | – | – | – | – | – | – | – | – | – |
| psilocin mucate | – | – | at least 7 months | Conforms | Conforms | <0.05 | All <0.05% | 101.7 | Conforms | Conforms | 0.08 | RRT1.12/0.08% | 100.8 | Feel calm, less thoughts, happier mood; also recorded: Euphoric, better mood, it helps with life stress; also recorded: Euphories, better mood, sleepy, feel time is slower; also recorded: Sleepy, better thoughts, less worried in general; also recorded: Did not feel change in mood but feeling cold extremities; also recorded: More relaxed, want to drink sweet tea, better mood; also recorded: Better mood, feels hyper sexual; also recorded: Felt high mood, now they feel in good way,, they would love to; also recorded: Less anxious, better mood, increase their appetite; also recorded: Feel little beet happier, better energy | 28 (3×) and 27 (2×) and 30 (3×) and 29 (2×) |
